Assay results published in the NIST ThermoML archive (doi:10.1021/je060343y).

What was measured:
[1] = φn = volume fraction of the nth substance listed; conditions: 101 kPa, Liquid
[2] = 101 kPa, Liquid

CCOC(=O)CCl [ethyl chloroethanoate] + CNC(C)=O
[1]
Conditions | mass density [kg/m3] | speed of sound [m/s]
303.15 K, φ2 = 0 | 1139.29 | 1229
303.15 K, φ2 = 0.0547 | 1128.33 | 1238
303.15 K, φ2 = 0.154 | 1110.27 | 1252
303.15 K, φ2 = 0.2473 | 1093.79 | 1265
303.15 K, φ2 = 0.2903 | 1085.92 | 1272
303.15 K, φ2 = 0.4356 | 1059.31 | 1293
303.15 K, φ2 = 0.5321 | 1041.12 | 1305
303.15 K, φ2 = 0.6203 | 1024.32 | 1317
303.15 K, φ2 = 0.7118 | 1006.88 | 1329
303.15 K, φ2 = 0.8656 | 977.31 | 1350
308.15 K, φ2 = 0 | 1132.5 | 1212
308.15 K, φ2 = 0.0547 | 1123.26 | 1221
308.15 K, φ2 = 0.154 | 1105.23 | 1235
308.15 K, φ2 = 0.2473 | 1088.2 | 1249
308.15 K, φ2 = 0.2902 | 1080.37 | 1256
308.15 K, φ2 = 0.4356 | 1053.83 | 1277
308.15 K, φ2 = 0.532 | 1036.02 | 1291
308.15 K, φ2 = 0.6202 | 1019.38 | 1304
308.15 K, φ2 = 0.7118 | 1002.05 | 1318
308.15 K, φ2 = 0.8656 | 972.28 | 1342
313.15 K, φ2 = 0 | 1125.9 | 1198
313.15 K, φ2 = 0.0545 | 1115.23 | 1207
313.15 K, φ2 = 0.1535 | 1098.23 | 1220
313.15 K, φ2 = 0.2466 | 1082.14 | 1233
313.15 K, φ2 = 0.2895 | 1074.53 | 1239
313.15 K, φ2 = 0.4347 | 1048.13 | 1259
313.15 K, φ2 = 0.5312 | 1030.46 | 1271
313.15 K, φ2 = 0.6194 | 1014.19 | 1283
313.15 K, φ2 = 0.7111 | 997.15 | 1296
313.15 K, φ2 = 0.8652 | 968.5 | 1317
318.15 K, φ2 = 0 | 1119.9 | 1177
318.15 K, φ2 = 0.0544 | 1109.19 | 1187
318.15 K, φ2 = 0.1533 | 1090.85 | 1202
318.15 K, φ2 = 0.2464 | 1073.98 | 1207
318.15 K, φ2 = 0.2892 | 1066.23 | 1212
318.15 K, φ2 = 0.4344 | 1040.02 | 1231
318.15 K, φ2 = 0.5308 | 1022.75 | 1244
318.15 K, φ2 = 0.6191 | 1007.06 | 1257
318.15 K, φ2 = 0.7108 | 990.68 | 1272
318.15 K, φ2 = 0.865 | 963.31 | 1296

CCOC(=O)CC#N [ethyl cyanoacetate]
[2]
Conditions | mass density [kg/m3] | speed of sound [m/s]
303.15 K | 1051.4 | 1397
308.15 K | 1046.5 | 1385
313.15 K | 1040.8 | 1368
318.15 K | 1034.7 | 1359

CCOC(=O)CC#N [ethyl cyanoacetate] + CNC(C)=O
[1]
Conditions | mass density [kg/m3] | speed of sound [m/s]
303.15 K, φ2 = 0 | 1051.4 | 1397
303.15 K, φ2 = 0.0529 | 1048.11 | 1396
303.15 K, φ2 = 0.186 | 1036.06 | 1391
303.15 K, φ2 = 0.2745 | 1027.82 | 1389
303.15 K, φ2 = 0.3672 | 1018.95 | 1386
303.15 K, φ2 = 0.4502 | 1010.93 | 1384
303.15 K, φ2 = 0.5435 | 1001.23 | 1380
303.15 K, φ2 = 0.5664 | 998.75 | 1379
303.15 K, φ2 = 0.7307 | 980.97 | 1375
303.15 K, φ2 = 0.8795 | 964.97 | 1370
308.15 K, φ2 = 0 | 1046.5 | 1385
308.15 K, φ2 = 0.0529 | 1041.91 | 1384
308.15 K, φ2 = 0.1862 | 1029.63 | 1380
308.15 K, φ2 = 0.2747 | 1021.42 | 1378
308.15 K, φ2 = 0.3675 | 1012.63 | 1375
308.15 K, φ2 = 0.4504 | 1004.44 | 1373
308.15 K, φ2 = 0.5438 | 994.68 | 1371
308.15 K, φ2 = 0.5666 | 992.26 | 1370
308.15 K, φ2 = 0.7309 | 974.66 | 1367
308.15 K, φ2 = 0.8796 | 958.76 | 1365
313.15 K, φ2 = 0 | 1040.8 | 1368
313.15 K, φ2 = 0.0528 | 1036.3 | 1366
313.15 K, φ2 = 0.1857 | 1024.28 | 1362
313.15 K, φ2 = 0.2741 | 1015.97 | 1359
313.15 K, φ2 = 0.3667 | 1007.36 | 1356
313.15 K, φ2 = 0.4497 | 999.41 | 1353
313.15 K, φ2 = 0.543 | 990.26 | 1349
313.15 K, φ2 = 0.5659 | 987.92 | 1348
313.15 K, φ2 = 0.7303 | 971.38 | 1343
313.15 K, φ2 = 0.8793 | 956.39 | 1337
318.15 K, φ2 = 0 | 1034.7 | 1359
318.15 K, φ2 = 0.0527 | 1030.52 | 1358
318.15 K, φ2 = 0.1854 | 1018.59 | 1356
318.15 K, φ2 = 0.2737 | 1010.48 | 1352
318.15 K, φ2 = 0.3663 | 1001.85 | 1348
318.15 K, φ2 = 0.4492 | 994.13 | 1345
318.15 K, φ2 = 0.5425 | 985.18 | 1341
318.15 K, φ2 = 0.5654 | 982.97 | 1340
318.15 K, φ2 = 0.7299 | 966.83 | 1332
318.15 K, φ2 = 0.8791 | 952.07 | 1324
